The NIST ThermoML archive (doi:10.1016/j.jct.2010.06.008)

Experiment: xn = mol fraction of the nth substance listed
Conditions: 101 kPa, Liquid; for speed of sound: Sing-around technique in a fixed-path interferometer; for mass density: Vibrating tube method

CCCCCC [hexane] + CC(C)(C)Cl
x1 = 1
Conditions	mass density [kg/m3]	speed of sound [m/s]
283.15 K	668.609	1145.1
298.15 K	654.96	1077
313.15 K	641.39	1009.9

CCCCCCC [heptane] + CC(C)CCl
x1 = 1
Conditions	mass density [kg/m3]	speed of sound [m/s]
283.15 K	692.422	1195.7
298.15 K	679.783	1131
313.15 K	666.908	1067.2

CCCCCCC [heptane] + CC(C)(C)Cl
x1 = 1
Conditions	mass density [kg/m3]	speed of sound [m/s]
283.15 K	692.422	1195.7
298.15 K	679.783	1131
313.15 K	666.908	1067.2

CCCCCl [1-chlorobutane] + CCCCCC
Conditions	mass density, 283.15 K [kg/m3]	mass density, 298.15 K [kg/m3]	mass density, 313.15 K [kg/m3]	speed of sound, 283.15 K [m/s]	speed of sound, 298.15 K [m/s]	speed of sound, 313.15 K [m/s]
x2 = 0	897.339	880.785	863.882	1180.1	1118.2	1056.9
x2 = 0.0508	882.878	866.478	849.768	1176	1113.8	1052.2
x2 = 0.0992	869.441	853.196	836.65	1172.3	1109.7	1047.9
x2 = 0.1972	843.152	827.205	810.995	1165.6	1102.4	1040
x2 = 0.2966	817.766	802.115	786.257	1159.7	1095.9	1032.8
x2 = 0.3976	793.168	777.821	762.288	1154.6	1090.2	1026.5
x2 = 0.5009	769.237	754.195	739.001	1150.5	1085.6	1021.2
x2 = 0.6006	747.205	732.45	717.601	1147.4	1081.8	1016.9
x2 = 0.6982	726.617	712.126	697.583	1145.2	1079.1	1013.6
x2 = 0.7972	706.669	692.488	678.241	1143.9	1077.2	1011.2
x2 = 0.8979	687.33	673.439	659.508	1143.7	1076.4	1009.8
x2 = 0.9472	678.205	664.449	650.666	1144.1	1076.4	1009.7

CCCCCC [hexane] + CC(C)CCl
x1 = 1
Conditions	mass density [kg/m3]	speed of sound [m/s]
283.15 K	668.609	1145.1
298.15 K	654.96	1077
313.15 K	641.39	1009.9

CCCCCC [hexane] + CCCCCl
x1 = 1
Conditions	mass density [kg/m3]	speed of sound [m/s]
283.15 K	668.609	1145.1
298.15 K	654.96	1077
313.15 K	641.39	1009.9

CCCCCCC [heptane] + CCCCCl
x1 = 1
Conditions	mass density [kg/m3]
283.15 K	692.422
298.15 K	679.783
313.15 K	666.908
